Data on 95 molecules can be found in the Kinase Knowledgebase extract (Sharma et al. 2016).

Converted amounts (≈) assume the structure as drawn. Bounds are passed on as bounds.

The target in this assay is EGFR (UniProt P00533).
Chain of EGFR (P00533 whole entry, looked up): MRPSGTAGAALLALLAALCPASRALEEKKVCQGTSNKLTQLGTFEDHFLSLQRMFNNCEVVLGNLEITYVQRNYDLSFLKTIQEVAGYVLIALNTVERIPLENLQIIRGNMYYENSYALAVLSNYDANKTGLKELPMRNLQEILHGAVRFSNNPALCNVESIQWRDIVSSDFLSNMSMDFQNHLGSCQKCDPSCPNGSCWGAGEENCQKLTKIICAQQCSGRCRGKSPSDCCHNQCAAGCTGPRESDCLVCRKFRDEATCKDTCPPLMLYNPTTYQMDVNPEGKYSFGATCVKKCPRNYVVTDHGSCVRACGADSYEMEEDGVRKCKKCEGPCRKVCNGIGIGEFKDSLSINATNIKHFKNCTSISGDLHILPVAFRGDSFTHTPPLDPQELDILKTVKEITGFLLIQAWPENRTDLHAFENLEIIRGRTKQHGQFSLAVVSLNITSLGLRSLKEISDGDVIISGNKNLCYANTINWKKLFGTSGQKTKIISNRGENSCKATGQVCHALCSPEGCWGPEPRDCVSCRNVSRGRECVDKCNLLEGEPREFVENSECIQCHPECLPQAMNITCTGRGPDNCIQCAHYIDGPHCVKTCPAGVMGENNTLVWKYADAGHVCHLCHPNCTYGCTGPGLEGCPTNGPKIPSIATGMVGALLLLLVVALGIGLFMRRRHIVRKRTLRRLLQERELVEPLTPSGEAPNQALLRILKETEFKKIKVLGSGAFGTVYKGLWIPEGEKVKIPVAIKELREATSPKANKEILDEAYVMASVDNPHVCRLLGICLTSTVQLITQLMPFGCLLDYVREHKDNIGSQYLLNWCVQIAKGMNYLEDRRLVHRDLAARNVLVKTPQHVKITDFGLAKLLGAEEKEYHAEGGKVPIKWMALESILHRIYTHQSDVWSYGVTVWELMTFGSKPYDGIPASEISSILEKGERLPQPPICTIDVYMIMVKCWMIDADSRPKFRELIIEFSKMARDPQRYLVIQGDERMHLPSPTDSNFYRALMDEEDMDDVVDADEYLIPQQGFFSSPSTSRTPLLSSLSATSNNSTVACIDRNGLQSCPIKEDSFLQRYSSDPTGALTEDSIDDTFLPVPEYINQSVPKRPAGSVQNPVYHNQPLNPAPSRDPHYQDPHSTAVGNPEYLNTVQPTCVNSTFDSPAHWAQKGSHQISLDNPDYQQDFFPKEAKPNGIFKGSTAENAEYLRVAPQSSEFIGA

For `COc1cc(Nc2ncnc(-c3c(O)[nH]c4ccccc34)n2)cc(OC)c1OC`, the concentration for half-maximal inhibition (IC50) is greater than 4.5 µg/mL.

In turn, `COc1cc(Nc2ncnc(N3CCc4cc([N+](=O)[O-])ccc43)n2)cc(OC)c1OC` came in with an IC50 greater than 4.5 µg/mL. For `COc1cc(Nc2ncnc(N3CCc4ccccc4C3)n2)cc(OC)c1OC` the value was greater than 4.5 µg/mL; for `COC(=O)n1c(=O)n(-c2ncnc(Nc3cc(OC)c(OC)c(OC)c3)n2)c2ccccc21`, greater than 4.5 µg/mL.

The molecule `COC(=O)c1cccc(Nc2ncnc(Nc3cc(-c4ccco4)n[nH]3)n2)c1` returned an IC50 greater than 4.5 µg/mL. The result for `COc1ccccc1Nc1ncnc(-n2cccc2)n1` reads greater than 4.5 µg/mL; that for `COc1cc(Nc2ncnc(Nc3[nH]ncc3-c3cccs3)n2)cc(OC)c1OC`, greater than 4.5 µg/mL; that for `COc1cc(Nc2ncnc(Nc3nc(C)cs3)n2)cc(OC)c1OC`, 0.4 to 2.4 µg/mL (≈ 1.07 to 6.41 µM).

`Fc1ccc(CNc2ncccc2-c2ncnc(Nc3cccc(Cn4ccnn4)c3)n2)cc1` returned an IC50 of 2.4 to 3.5 µg/mL (≈ 5.29 to 7.72 µM). The result for `COc1cc(Nc2ncnc(-n3c(N)nc4ccccc43)n2)cc(OC)c1OCCN1CCOCC1` reads greater than 4.5 µg/mL; that for `Nc1nc2ccccc2n1-c1ncnc(Nc2cccc(CC(=O)NCc3ccccn3)c2)n1`, greater than 4.5 µg/mL; that for `COc1cc(Nc2ncnc(-n3c(Nc4ccc(F)cc4)nc4ccccc43)n2)cc(OC)c1OC`, greater than 4.5 µg/mL. `COc1cc(Nc2ncnc(N3c4ccccc4CC3C)n2)cc(OC)c1OC` (stereo not given) registered an IC50 of 0.4 to 2.4 µg/mL (≈ 1.02 to 6.1 µM). `O=C(O)CCNC(=O)c1ccc(Nc2ncnc(Nc3cc(-c4ccco4)[nH]n3)n2)cc1` had an IC50 of 0.4 to 2.4 µg/mL (≈ 0.921 to 5.52 µM). For `COc1ccc(Nc2ncnc(N(C)c3cccc(Cl)c3)n2)cc1` the value was less than 0.4 µg/mL; for `COc1cc(Nc2ncnc(Nc3cccc(OCc4ccccc4)c3)n2)cc(OC)c1OC`, greater than 4.5 µg/mL; for `Nc1nc2ccccc2n1-c1ncnc(Nc2ccc(Cl)cc2)n1`, 0.4 to 2.4 µg/mL (≈ 1.18 to 7.11 µM). The result for `COc1ccccc1Nc1ncnc(-c2ccccc2)n1` reads greater than 4.5 µg/mL.

The molecule `NC(=O)c1ccc(Nc2ncnc(-n3c(N)nc4ccccc43)n2)cc1` had an IC50 of 2.4 to 3.5 µg/mL (≈ 6.93 to 10.1 µM). The result for `Cc1cccc(Nc2ncnc(Nc3cc(-c4ccccc4)n[nH]3)n2)c1` reads less than 0.4 µg/mL; that for `COc1ccc(Nc2ncnc(-n3c(N)nc4ccccc43)n2)cc1`, 2.4 to 3.5 µg/mL (≈ 7.2 to 10.5 µM). For `CC1CCc2ccccc2N1c1ncnc(N2c3ccccc3CCC2C)n1` (stereo not given) the value was 2.4 to 3.5 µg/mL (≈ 6.46 to 9.42 µM); for `COc1cc(Nc2ncnc(-n3c(N[C@H](C)c4ccccc4)nc4ccccc43)n2)cc(OC)c1OC`, greater than 4.5 µg/mL; for `COc1ccc(Nc2nc3ccccc3n2-c2ncnc(Nc3cc(OC)c(OC)c(OC)c3)n2)cc1OC`, greater than 4.5 µg/mL. Regarding `COc1cc(Nc2ncnc(-n3cccc3)n2)cc(OC)c1OC`, the IC50 was greater than 4.5 µg/mL. For `CC(C)Nc1ncccc1-c1ncnc(Nc2ccc(N3CCOCC3)cc2)n1` the value was 0.4 to 2.4 µg/mL (≈ 1.02 to 6.13 µM); for `O=c1[nH]c2ccccc2n1-c1ncnc(Nc2ncccn2)n1`, greater than 4.5 µg/mL; for `CCN(CC)CCOc1ccc(Nc2ncnc(-n3c(N)nc4ccccc43)n2)cc1OC`, greater than 4.5 µg/mL. On to `CN(c1cccc(Cl)c1)c1ncnc(Nc2cc(C(C)(C)C)on2)n1`, for which the IC50 was greater than 4.5 µg/mL. With `COc1cc(Nc2ncnc(Nc3cc(-c4cccc(C(F)(F)F)c4)n[nH]3)n2)cc(OC)c1OC`, the IC50 is 2.4 to 3.5 µg/mL (≈ 4.92 to 7.18 µM). The result for `CN(c1cccc(Br)c1)c1ncnc(Nc2cccc(Cc3nnn[nH]3)c2)n1` reads less than 0.4 µg/mL; that for `COc1cc(Nc2ncnc(Nc3ccc(S(=O)(=O)NC(C)=O)cc3)n2)cc(OC)c1OC`, greater than 4.5 µg/mL. The result for `COc1cc(Nc2ncnc(-n3c(NCc4ncccc4C)nc4ccccc43)n2)cc(OC)c1OC` reads greater than 4.5 µg/mL; that for `COc1cc(Nc2ncnc(N3c4ccccc4CCC3C)n2)cc(OC)c1OC` (stereo not given), 0.4 to 2.4 µg/mL (≈ 0.982 to 5.89 µM); that for `CC(C)(C)c1cc(Nc2ncnc(Nc3cccc(CO)c3)n2)[nH]n1`, 0.4 to 2.4 µg/mL (≈ 1.18 to 7.07 µM). The result for `COc1cc(Nc2ncnc(Nc3c(C)n(C)n(-c4ccccc4)c3=O)n2)cc(OC)c1OC` reads greater than 4.5 µg/mL; that for `COc1cccc(CCNc2ncnc(Nc3ccc4c(cnn4Cc4ccccc4)c3)n2)c1OC`, greater than 4.5 µg/mL; that for `COc1ccc(Nc2ncnc(NCc3cccc(Cl)c3)n2)cc1OC`, 0.4 to 2.4 µg/mL (≈ 1.08 to 6.45 µM). `CC(=O)NS(=O)(=O)c1ccc(Nc2ncnc(-n3c(=O)[nH]c4ccccc43)n2)cc1`: the IC50 is greater than 4.5 µg/mL. For `O=c1[nH]c2ccccc2n1-c1ncnc(Nc2ccc3[nH]ncc3c2)n1` the value was greater than 4.5 µg/mL; for `O=c1[nH]c2ccccc2n1-c1ncnc(Nc2ccc(OC(F)(F)F)cc2)n1`, greater than 4.5 µg/mL; for `COc1ccc(Nc2ncnc(-n3c(N)nc4ccccc43)n2)cc1OC`, greater than 4.5 µg/mL. For `NC(=O)c1cccc(Nc2ncnc(-c3ccccc3)n2)c1` the value was greater than 4.5 µg/mL; for `Fc1ccccc1Nc1ncnc(-c2ccccc2)n1`, greater than 4.5 µg/mL. As for `CC(C)(C)OC(=O)NCc1cccc(Nc2ncnc(Nc3cc(-c4ccccc4)n[nH]3)n2)c1`, the IC50 lay in the range of 2.4 to 3.5 µg/mL (≈ 5.23 to 7.63 µM). The result for `COc1cc(Nc2ncnc(-n3c(NCc4ccccc4C)nc4ccccc43)n2)cc(OC)c1OC` reads greater than 4.5 µg/mL; that for `COc1cc(Nc2ncnc(-c3c(O)[nH]c4ccc(Cl)cc34)n2)cc(OC)c1OC`, 2.4 to 3.5 µg/mL (≈ 5.61 to 8.18 µM); that for `COc1cc(Nc2ncnc(-c3cccc4ccccc34)n2)cc(OC)c1OC`, greater than 4.5 µg/mL.

As to `COc1ccc(Nc2ncnc(-n3c(N)nc4ccccc43)n2)cc1O`, the IC50 lay in the range of 2.4 to 3.5 µg/mL (≈ 6.87 to 10 µM). The result for `COc1cc(Nc2ncnc(-n3c(NCc4ccccn4)nc4ccccc43)n2)cc(OC)c1OCCN1CCOCC1` reads greater than 4.5 µg/mL; that for `COc1ccc(CNc2ncnc(Nc3ccc4c(cnn4Cc4ccccc4)c3)n2)cc1OC`, 3.5 to 4.5 µg/mL (≈ 7.49 to 9.62 µM). The molecule `COc1cc(Nc2ncnc(-n3c(C)nc4ccccc43)n2)cc(OC)c1OC` yielded an IC50 of 2.4 to 3.5 µg/mL (≈ 6.12 to 8.92 µM).

As for `COc1cc(Nc2ncnc(N(C/C=C/c3ccccc3)c3ccc(Cl)cc3)n2)cc(OC)c1OC`, the IC50 is less than 0.4 µg/mL. For `COc1cc(Nc2ncnc(Nc3ccc(-c4ccccc4)cc3)n2)cc(OC)c1OC` the value was 3.5 to 4.5 µg/mL (≈ 8.15 to 10.5 µM); for `Nc1nc2ccccc2n1-c1ncnc(Nc2cccc(Cn3ccnn3)c2)n1`, 2.4 to 3.5 µg/mL (≈ 6.24 to 9.1 µM). For `NC(=O)c1ccc(Nc2ncnc(-c3cccnc3NCc3cccs3)n2)cc1` the value was 0.4 to 2.4 µg/mL (≈ 0.991 to 5.95 µM); for `COc1cc(Nc2ncnc(-n3ccnc3)n2)cc(OC)c1OC`, greater than 4.5 µg/mL.

In the case of `COCCOc1cc(Nc2ncnc(Nc3ccc(C)c(O)c3)n2)ccc1OC`, the IC50 is less than 0.4 µg/mL.

`COc1cc(Nc2ncnc(N3CCCc4ccccc43)n2)cc(OC)c1OC` came in with an IC50 of less than 0.4 µg/mL.

`O=c1[nH]c2ccccc2n1-c1ncnc(Nc2ccccc2)n1` registered an IC50 greater than 4.5 µg/mL. For the molecule `COc1cc(Nc2ncnc(-c3cccnc3N)n2)cc(OC)c1OC`, the IC50 is greater than 4.5 µg/mL. In turn, `COc1cc(C)c(Nc2ncnc(Nc3cc(-c4ccc(C)cc4)n[nH]3)n2)cc1OC` yielded an IC50 greater than 4.5 µg/mL.

Molecule `COc1cc(Nc2ncnc(-n3c(Nc4ccc(C)cc4)nc4ccccc43)n2)cc(OC)c1OC` displayed an IC50 greater than 4.5 µg/mL.

For the molecule `COc1cccc(Nc2ncnc(Nc3ccc(OCc4ccccc4)cc3)n2)c1`, the IC50 fell in the range of 0.4 to 2.4 µg/mL (≈ 1 to 6.01 µM). The result for `CCOc1ccc(Nc2ncnc(Nc3ccc(OCc4ccccc4)cc3)n2)cc1OCC` reads 0.4 to 2.4 µg/mL (≈ 0.874 to 5.25 µM); that for `COc1ccc(N(C)c2ncnc(Nc3cc(OC)c(OC)c(OC)c3)n2)cc1`, 0.4 to 2.4 µg/mL (≈ 1.01 to 6.04 µM); that for `O=c1[nH]c2ccccc2n1-c1ncnc(Nc2ccc(-c3cnco3)cc2)n1`, greater than 4.5 µg/mL.

Consider `c1ccc(Nc2ncccc2-c2ncnc(Nc3ccc4[nH]ncc4c3)n2)cc1`, for which the IC50 lay within 3.5 to 4.5 µg/mL (≈ 9.2 to 11.8 µM). For `COc1cc(Nc2ncnc(-c3cccnc3NCc3ccccc3F)n2)cc(OC)c1OC` the value was greater than 4.5 µg/mL; for `Fc1ccc(Nc2ncnc(-n3cccc3)n2)cc1`, greater than 4.5 µg/mL; for `COc1cc(Nc2ncnc(Nc3cc(-c4ccccc4)nn3C)n2)cc(OC)c1OC`, 3.5 to 4.5 µg/mL (≈ 8.07 to 10.4 µM). For `COc1cc(Nc2ncnc(N(C)c3ccc4c(cnn4Cc4ccccc4)c3)n2)cc(OC)c1OC` the value was less than 0.4 µg/mL; for `COc1ccc(Nc2ncnc(-n3c(N)nc4ccccc43)n2)cc1OCCN1CCOCC1`, greater than 4.5 µg/mL; for `COc1ccc2c(ccn2-c2ncnc(Nc3cc(OC)c(OC)c(OC)c3)n2)c1`, 3.5 to 4.5 µg/mL (≈ 8.59 to 11 µM). The molecule `c1ccc(Cn2ncc3cc(Nc4ncnc(Nc5ncccn5)n4)ccc32)cc1` had an IC50 of 0.4 to 2.4 µg/mL (≈ 1.01 to 6.07 µM).

For `CC(=O)N1CCc2cc(Nc3ncnc(N4CCCc5cc(C)ccc54)n3)ccc21`, the IC50 was less than 0.4 µg/mL. For `COc1cc(Nc2ncnc(-c3cccnc3Nc3cccc(C#N)c3)n2)cc(OC)c1OC` the value was greater than 4.5 µg/mL. `Fc1cccc(Nc2ncnc(-c3cccs3)n2)c1`: the IC50 was greater than 4.5 µg/mL. `CCc1cccc(Nc2ncnc(-n3c(N)nc4ccccc43)n2)c1` had an IC50 of 0.4 to 2.4 µg/mL (≈ 1.21 to 7.24 µM). The result for `COc1cc(Nc2ncnc(Nc3nnc(-c4ccccc4)[nH]3)n2)cc(OC)c1OC` reads greater than 4.5 µg/mL; that for `COc1cc(Nc2ncnc(-n3ccc4cc(O)ccc43)n2)cc(OC)c1OC`, greater than 4.5 µg/mL.

`COc1cc(Nc2ncnc(Nc3nc4ccc(F)cc4s3)n2)cc(OC)c1OC` displayed a half-maximal inhibitory concentration (IC50) greater than 4.5 µg/mL. For the molecule `CN(c1ccccc1)c1ncnc(-n2c(N)nc3ccccc32)n1`, the IC50 was 2.4 to 3.5 µg/mL (≈ 7.56 to 11 µM). The result for `COc1cc(Nc2ncnc(-c3cccnc3Nc3cccc(C(F)(F)F)c3)n2)cc(OC)c1OC` reads greater than 4.5 µg/mL; that for `COc1cc(Nc2ncnc(-c3cccnc3Cl)n2)cc(OC)c1OC`, greater than 4.5 µg/mL; that for `COC(=O)c1ccc(-c2cc(Nc3ncnc(Nc4cccc5ncccc45)n3)[nH]n2)cc1`, greater than 4.5 µg/mL. For `COc1cc(Nc2ncnc(-n3ccc4ccc(F)cc43)n2)cc(OC)c1OC` the value was greater than 4.5 µg/mL; for `COc1cc(Nc2ncnc(Nc3ccc(Oc4ccccc4)cc3)n2)cc(OC)c1OC`, less than 0.4 µg/mL. For `Nc1ncnc(Nc2nc(-c3ccccc3)cs2)n1` the value was greater than 4.5 µg/mL. Molecule `CNc1ncnc(Nc2cc(OC)c(OC)c(OC)c2)n1` came in with an IC50 greater than 4.5 µg/mL. For `COc1cc(Nc2ncnc(Nc3ncnc4[nH]cnc34)n2)cc(OC)c1OC` the value was greater than 4.5 µg/mL.

`COc1ccc(Nc2ncnc(-n3c(N)nc4ccccc43)n2)cn1` displayed an IC50 greater than 4.5 µg/mL.

Turning to `COc1cc(Nc2ncnc(Nc3ccc4c(c3)CCC4)n2)cc(OC)c1OC`, the IC50 lay in the range of 0.4 to 2.4 µg/mL (≈ 1.02 to 6.1 µM). The molecule `COc1cc(Nc2ncnc(Nc3ccc(O)cc3)n2)cc(OC)c1OC` gave an IC50 of 0.4 to 2.4 µg/mL (≈ 1.08 to 6.5 µM).

`COc1cc(Nc2ncnc(N[C@H](CO)c3ccccc3)n2)cc(OC)c1OC`: the IC50 lay in the range of 0.4 to 2.4 µg/mL (≈ 1.01 to 6.04 µM).

What is called IC50 is the concentration at which inhibition is half-maximal.
